Test results taken from US20220380383A1, “NEUROPROTECTIVE PDI MODULATING SMALL MOLECULES AND METHODS OF USE THEREOF” (THE TRUSTEES OF COLUMBIA UNIVERSITY IN THE CITY OF NEW YORK, priority 2018, published 2022).
Values after ≈ are worked out from the molar mass of the structure shown. “Also recorded” adds a separate entry of the source. Like-named read-outs stand apart in the source and are kept apart here.

Legend:
[1] = test system: PC12 mHTTQ103 cells; test: Rescue of PC12 cells from mHTTQ103-induced cell death; format: cell-based, rat; details: for EC50: Rattus norvegicus, PC-12
[2] = test system: cortical pyramidal neurons in rat coronal brain slice explants co-transfected with YFP and Tau-4R; test: AD brain slice model (Tau-4R); format: cell-based
Excerpt: The cortical regions of each brain slice were then scored for numbers of healthy pyramidal neurons remaining. Data are plotted as means±SEM. Graph represents an average of 3 independent experimental runs. Significant difference is denoted with * with respect to the Tau-4R condition by ANOVA followed by Dunnett's post hoc comparison test at p<0.05.
To see if the mechanism of LOC14 protection can ameliorate other neurodegenerative disease phenotypes, we used a brain slice model of Alzheimer's disease (AD) in which the degeneration of cortical pyramidal neurons is induced via transfected tau protein containing four repeats of the microtubulin-binding domain (Tau-4R). Rat coronal brain slice explants were co-transfected with YFP and Tau-4R and treated with LOC14, benzoisothiazolone, or DMSO vehicle-only for 3 days. The cortical region of each brain slice was then scored for number of healthy pyramidal neurons remaining.

[3] = test system: uninduced PC12 cells not expressing mHTTQ103; test: General cell toxicity in PC12 cell culture assay; format: cell-based
Procedure: Neuroprotection was assessed by each compound's ability to rescue cells from mutant-huntingtin-induced cell death (“Ind Q103” cells; blue). General cell toxicity of each compound was assessed in uninduced cells not expressing mutant-huntingtin protein (“Unind Q103” cells; red). NMP, DMSO, LOC14 in NMP and LOC14 in DMSO were used as controls.
Data from cells induced to express mHTT^Q103 (blue) and cells not expressing mHTT^Q103 (red) are plotted as mean percent of DMSO-treated uninduced cells±SD with n=3.
The follow-up testing of primary screen hits was performed in a similar way. Fresh powder stocks of primary hits were re-ordered from vendors, dissolved in DMSO and tested in a two-fold serial dilution across 10 wells in both tebufenozide-induced and uninduced PC12 mHTT^Q103 cells. Dose-response curves were plotted as mean±SD and fit to either four-parameter sigmoidal (for uninduced cells) or bell-shaped (induced) function using Prism (GraphPad Software).

[4] = Solubility (stock solvent)
[5] = target: Adrenergic β2 (Homo sapiens, UniProt P07550); test: Off-target panel, Adrenergic β2; format: binding; details: Conc. 3 μM
[6] = target: Cannabinoid CB1 (Homo sapiens, UniProt P21554); test: Off-target panel, Cannabinoid CB1; format: binding; details: Conc. 3 μM
[7] = target: Dopamine D1 (Homo sapiens, UniProt P21728); test: Off-target panel, Dopamine D1; format: binding; details: Conc. 3 μM
[8] = target: Muscarinic M3 (Homo sapiens, UniProt P20309); test: Off-target panel, Muscarinic M3; format: binding; details: Conc. 3 μM
Chain of Muscarinic M3 (P20309 whole entry): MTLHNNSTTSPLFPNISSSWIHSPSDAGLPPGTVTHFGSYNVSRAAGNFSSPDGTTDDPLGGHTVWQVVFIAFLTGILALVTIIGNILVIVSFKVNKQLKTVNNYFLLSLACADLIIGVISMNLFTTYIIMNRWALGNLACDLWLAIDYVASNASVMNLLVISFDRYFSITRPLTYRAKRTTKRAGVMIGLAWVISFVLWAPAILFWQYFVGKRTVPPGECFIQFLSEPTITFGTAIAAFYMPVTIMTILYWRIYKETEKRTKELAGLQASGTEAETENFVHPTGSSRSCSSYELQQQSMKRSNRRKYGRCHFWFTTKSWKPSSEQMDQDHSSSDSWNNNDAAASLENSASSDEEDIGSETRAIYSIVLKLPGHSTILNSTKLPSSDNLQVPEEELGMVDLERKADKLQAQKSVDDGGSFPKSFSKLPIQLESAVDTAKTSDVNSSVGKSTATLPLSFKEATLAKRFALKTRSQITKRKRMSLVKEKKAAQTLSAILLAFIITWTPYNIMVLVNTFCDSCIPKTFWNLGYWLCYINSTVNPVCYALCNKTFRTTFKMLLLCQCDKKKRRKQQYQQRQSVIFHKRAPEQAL

[9] = target: Nicotinic Acetylcholine α1, Bungarotoxin (Homo sapiens, UniProt P02708+P07510+Q07001); test: Off-target panel, Nicotinic Acetylcholine α1; format: binding; details: read-out: % Inh.
[10] = target: Opiate (OP3, MOP) (Homo sapiens, UniProt P35372); test: Off-target panel, Opiate; format: binding; details: Conc. 3 μM
[11] = target: Serotonin (5-Hydroxytryptamine) 5-HT2B (Homo sapiens, UniProt P41595); test: Off-target panel, Serotonin 5-HT2B; format: binding; details: Conc. 3 μM
[12] = target: T1, DAT (Homo sapiens, UniProt Q01959); test: Safety47 panel transporter DAT; format: cell-based; details: Blocker mode; 3 μM
T1 construct: CEREP (CRO panel)
Excerpt: (§1) LOC14 was also submitted for testing in CEREP's Safety47 panel. CEREP is a CRO specializing in preclinical research, discovery and development of new pharmaceutical drugs.

[13] = target: T2, NET (Homo sapiens, UniProt P23975); test: Safety47 panel transporter NET; format: cell-based; details: Blocker mode; 3 μM
T2 construct: CEREP (CRO panel)
Excerpt: as §1

[14] = target: T3, CAV1.2 (Homo sapiens, UniProt Q13936); test: Safety47 panel ion channel CAV1.2; format: cell-based; details: Blocker mode; 3 μM
T3 construct: CEREP (CRO panel)
Excerpt: as §1

[15] = target: T4, hERG (Homo sapiens, UniProt Q12809); test: Safety47 panel ion channel hERG; format: cell-based; details: Blocker mode; 3 μM
T4 construct: CEREP (CRO panel)
Excerpt: as §1

[16] = target: T5, NMDAR (1A/2B) (Homo sapiens, UniProt Q05586+Q13224); test: Safety47 panel ion channel NMDAR (1A/2B); format: cell-based; details: 3 μM
T5 construct: CEREP (CRO panel)
T5 sequence (Q13224 27-1484, other chains not shown): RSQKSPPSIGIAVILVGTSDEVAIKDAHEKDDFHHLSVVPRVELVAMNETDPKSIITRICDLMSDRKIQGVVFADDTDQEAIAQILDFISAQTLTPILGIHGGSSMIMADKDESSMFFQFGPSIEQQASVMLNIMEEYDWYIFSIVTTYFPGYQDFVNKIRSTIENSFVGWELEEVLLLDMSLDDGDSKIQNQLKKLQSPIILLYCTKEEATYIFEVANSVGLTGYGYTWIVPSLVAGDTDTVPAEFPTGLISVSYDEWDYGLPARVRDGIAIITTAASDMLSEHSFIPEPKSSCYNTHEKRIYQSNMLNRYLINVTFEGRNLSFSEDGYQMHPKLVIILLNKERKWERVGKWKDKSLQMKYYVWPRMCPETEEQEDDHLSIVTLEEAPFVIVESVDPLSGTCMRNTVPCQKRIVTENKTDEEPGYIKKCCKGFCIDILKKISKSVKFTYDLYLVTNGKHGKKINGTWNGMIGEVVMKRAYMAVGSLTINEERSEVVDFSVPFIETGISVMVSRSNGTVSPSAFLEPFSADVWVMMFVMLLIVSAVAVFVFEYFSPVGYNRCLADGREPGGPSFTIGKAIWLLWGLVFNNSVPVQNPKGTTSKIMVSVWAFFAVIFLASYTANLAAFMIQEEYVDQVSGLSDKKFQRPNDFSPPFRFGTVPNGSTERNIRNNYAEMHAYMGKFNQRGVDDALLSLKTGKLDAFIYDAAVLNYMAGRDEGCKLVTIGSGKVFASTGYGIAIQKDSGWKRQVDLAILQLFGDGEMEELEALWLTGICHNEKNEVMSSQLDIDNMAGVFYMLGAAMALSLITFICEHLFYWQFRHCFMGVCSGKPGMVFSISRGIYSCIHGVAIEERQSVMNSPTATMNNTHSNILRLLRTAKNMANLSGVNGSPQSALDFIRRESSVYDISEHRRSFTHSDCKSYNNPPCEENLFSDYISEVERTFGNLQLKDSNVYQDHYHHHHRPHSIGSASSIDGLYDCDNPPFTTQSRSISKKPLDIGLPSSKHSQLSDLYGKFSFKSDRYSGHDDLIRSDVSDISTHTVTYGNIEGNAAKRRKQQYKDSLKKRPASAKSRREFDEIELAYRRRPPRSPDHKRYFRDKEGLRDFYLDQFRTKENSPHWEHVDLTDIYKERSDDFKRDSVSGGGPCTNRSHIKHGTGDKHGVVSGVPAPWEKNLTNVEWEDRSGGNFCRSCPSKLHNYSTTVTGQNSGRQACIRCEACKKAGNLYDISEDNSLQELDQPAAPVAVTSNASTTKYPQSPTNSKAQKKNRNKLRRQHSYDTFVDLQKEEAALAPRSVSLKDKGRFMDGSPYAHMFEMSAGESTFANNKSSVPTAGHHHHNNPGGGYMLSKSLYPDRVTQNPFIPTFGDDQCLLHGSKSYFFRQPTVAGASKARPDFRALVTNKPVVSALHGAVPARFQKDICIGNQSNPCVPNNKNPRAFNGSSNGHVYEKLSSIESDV
Excerpt: as §1

[17] = target: T6, COX1 (Homo sapiens, UniProt P23219); test: Safety47 panel non-kinase enzyme COX1; format: biochemical; details: Inhibitor mode; 3 μM
T6 construct: CEREP (CRO panel)
Excerpt: as §1

[18] = target: T7, MAOA (Homo sapiens, UniProt P21397); test: Safety47 panel non-kinase enzyme MAOA; format: biochemical; details: Inhibitor mode; 3 μM
T7 construct: CEREP (CRO panel)
T7 sequence (P21397 whole entry): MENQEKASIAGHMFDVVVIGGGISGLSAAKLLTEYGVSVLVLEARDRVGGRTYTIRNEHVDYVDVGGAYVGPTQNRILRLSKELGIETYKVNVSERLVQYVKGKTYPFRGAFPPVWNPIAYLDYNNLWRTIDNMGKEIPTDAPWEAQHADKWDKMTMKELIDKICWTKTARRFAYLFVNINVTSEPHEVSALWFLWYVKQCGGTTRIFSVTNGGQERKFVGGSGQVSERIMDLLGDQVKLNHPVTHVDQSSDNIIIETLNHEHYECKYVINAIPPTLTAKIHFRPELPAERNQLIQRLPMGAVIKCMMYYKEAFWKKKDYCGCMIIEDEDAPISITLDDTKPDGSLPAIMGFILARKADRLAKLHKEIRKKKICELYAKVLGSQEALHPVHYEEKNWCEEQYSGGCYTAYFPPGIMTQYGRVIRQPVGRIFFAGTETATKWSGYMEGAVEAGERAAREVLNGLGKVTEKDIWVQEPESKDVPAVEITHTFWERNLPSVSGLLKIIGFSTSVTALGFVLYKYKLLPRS
Excerpt: as §1

[19] = target: T8, PDE3A (Homo sapiens, UniProt Q14432); test: Safety47 panel non-kinase enzyme PDE3A; format: biochemical; details: Inhibitor mode; 3 μM
T8 construct: CEREP (CRO panel)
T8 sequence (Q14432 whole entry): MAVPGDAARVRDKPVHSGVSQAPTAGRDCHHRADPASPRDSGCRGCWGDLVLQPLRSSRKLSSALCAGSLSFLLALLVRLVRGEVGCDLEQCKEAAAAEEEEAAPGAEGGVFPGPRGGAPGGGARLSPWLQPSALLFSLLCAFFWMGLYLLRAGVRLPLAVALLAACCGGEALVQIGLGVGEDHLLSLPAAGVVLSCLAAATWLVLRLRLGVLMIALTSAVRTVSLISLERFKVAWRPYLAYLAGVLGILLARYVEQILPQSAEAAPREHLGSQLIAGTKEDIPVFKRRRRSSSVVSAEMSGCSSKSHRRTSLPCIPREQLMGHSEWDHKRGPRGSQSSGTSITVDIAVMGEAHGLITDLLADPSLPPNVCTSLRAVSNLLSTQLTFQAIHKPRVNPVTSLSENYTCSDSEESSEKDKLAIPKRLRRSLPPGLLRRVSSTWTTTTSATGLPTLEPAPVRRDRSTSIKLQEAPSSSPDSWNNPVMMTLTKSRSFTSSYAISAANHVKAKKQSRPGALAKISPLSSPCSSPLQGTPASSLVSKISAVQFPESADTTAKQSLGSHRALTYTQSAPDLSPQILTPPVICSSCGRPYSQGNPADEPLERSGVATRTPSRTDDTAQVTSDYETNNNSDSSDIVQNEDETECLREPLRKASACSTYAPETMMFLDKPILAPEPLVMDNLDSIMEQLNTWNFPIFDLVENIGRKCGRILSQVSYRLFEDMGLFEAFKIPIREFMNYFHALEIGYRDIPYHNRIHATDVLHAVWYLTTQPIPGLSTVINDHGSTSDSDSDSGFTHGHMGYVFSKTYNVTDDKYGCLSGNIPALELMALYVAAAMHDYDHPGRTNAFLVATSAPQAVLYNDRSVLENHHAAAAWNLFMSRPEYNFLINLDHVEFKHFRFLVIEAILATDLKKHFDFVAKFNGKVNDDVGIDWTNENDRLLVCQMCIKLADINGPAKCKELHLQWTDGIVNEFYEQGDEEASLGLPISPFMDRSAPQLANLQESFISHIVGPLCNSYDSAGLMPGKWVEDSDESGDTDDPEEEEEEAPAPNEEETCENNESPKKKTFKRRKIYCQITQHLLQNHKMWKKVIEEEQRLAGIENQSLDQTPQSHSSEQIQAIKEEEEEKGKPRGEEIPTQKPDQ
Excerpt: as §1

[20] = target: T9, INSR (Homo sapiens, UniProt P06213); test: Safety47 panel kinase INSR; format: biochemical; details: Inhibitor mode; 3 μM
T9 construct: CEREP (CRO panel)
T9 sequence (P06213 28-1382): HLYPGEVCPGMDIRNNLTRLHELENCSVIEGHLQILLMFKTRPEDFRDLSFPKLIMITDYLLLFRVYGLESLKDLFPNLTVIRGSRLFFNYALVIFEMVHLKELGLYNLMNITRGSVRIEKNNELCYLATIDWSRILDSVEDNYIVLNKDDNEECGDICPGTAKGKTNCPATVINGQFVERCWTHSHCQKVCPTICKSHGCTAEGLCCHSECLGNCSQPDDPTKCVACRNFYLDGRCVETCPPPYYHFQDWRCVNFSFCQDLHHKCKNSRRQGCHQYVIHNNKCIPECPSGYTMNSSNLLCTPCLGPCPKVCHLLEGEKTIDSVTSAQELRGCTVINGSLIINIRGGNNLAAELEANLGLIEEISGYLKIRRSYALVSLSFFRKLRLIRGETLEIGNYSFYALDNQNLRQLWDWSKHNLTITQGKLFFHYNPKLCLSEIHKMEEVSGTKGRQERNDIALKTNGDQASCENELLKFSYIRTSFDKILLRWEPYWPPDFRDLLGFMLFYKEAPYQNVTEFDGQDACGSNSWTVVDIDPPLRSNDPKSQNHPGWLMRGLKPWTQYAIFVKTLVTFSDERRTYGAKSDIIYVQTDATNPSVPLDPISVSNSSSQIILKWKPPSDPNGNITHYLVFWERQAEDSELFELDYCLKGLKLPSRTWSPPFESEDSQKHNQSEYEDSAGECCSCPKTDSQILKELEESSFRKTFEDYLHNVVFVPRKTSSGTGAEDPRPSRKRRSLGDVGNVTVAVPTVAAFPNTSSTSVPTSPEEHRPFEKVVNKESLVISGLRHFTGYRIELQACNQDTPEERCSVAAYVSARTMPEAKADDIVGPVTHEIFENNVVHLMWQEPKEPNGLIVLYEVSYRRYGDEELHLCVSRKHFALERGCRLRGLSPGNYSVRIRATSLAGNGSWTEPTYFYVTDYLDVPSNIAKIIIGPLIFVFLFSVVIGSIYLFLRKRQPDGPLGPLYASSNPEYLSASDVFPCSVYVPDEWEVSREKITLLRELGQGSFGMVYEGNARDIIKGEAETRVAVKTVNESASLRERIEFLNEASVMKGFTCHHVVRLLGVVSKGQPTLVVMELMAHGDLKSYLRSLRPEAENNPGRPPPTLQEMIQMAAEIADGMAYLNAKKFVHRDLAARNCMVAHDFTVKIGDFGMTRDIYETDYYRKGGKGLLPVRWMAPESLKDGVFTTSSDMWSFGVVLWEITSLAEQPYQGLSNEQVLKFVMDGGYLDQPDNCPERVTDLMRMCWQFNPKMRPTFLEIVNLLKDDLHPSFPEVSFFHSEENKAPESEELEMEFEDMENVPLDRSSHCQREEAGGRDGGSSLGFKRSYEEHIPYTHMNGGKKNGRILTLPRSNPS
Excerpt: as §1

[21] = test system: parental ST14A cells; test: Rescue of parental ST14A cells (39° C., serum starved, CellTiter-Glo); format: cell-based, rat; details: 48 hours
Excerpt: Having elucidated the molecular mechanism of LOC14's binding to PDI, we next tested whether PDI modulation with LOC14 would be effective in neurodegenerative disease models. First, we evaluated LOC14's neuroprotection in rat neuron-like PC12 cells stably transfected with an inducible plasmid for truncated mutant huntingtin protein (mHTT^Q103). […] We next evaluated the activity of LOC14 in cells that more closely represent the medium-size spiny neurons affected in Huntington Disease patients. We used rat embryonic day 14 striatal neuronal cells (ST14A) immortalized by transduction of temperature-sensitive SV40 large T antigen (Cattaneo and Conti, 1998; Ehrlich et al. 2001; Rigamonti et al. 2000). Under serum deprivation and at 39° C., where large T antigen is degraded, ST14A cells undergo cell death within 48-72 hours. This death was rescued by treatment with LOC14 (FIG. 13B).

[22] = cited from earlier work
[23] = target: Potassium Channel hERG (Homo sapiens, UniProt Q12809); test: in vitro
Excerpt: Additionally, we tested LOC14 in CEREP's Safety47 panel, an in vitro pharmacological profiling to determine off-target liabilities that might exist against 47 human targets associated with safety issues (Table 3 and Table 4).

[24] = Tables 5-13, PC12 cells, read-out: EC50
[25] = rescue from mHTTQ103 induced cell death
[26] = Tables 5-13, solvent not given (DMSO in Table 1)

## O=C(C1CC1)N1CCN(Cn2sc3c(F)cccc3c2=O)CC1 [LC-43]
[1]; [24]
  EC50: 7410 nM
[1]; Tables 5-13, PC12 cells
  Max Viability (%): 56%
[1]; [25]
  PC12 cells Max % Viability: 56.48%
[2]; 3 days treatment
  protection of pyramidal neurons in AD brain slice: dose-dependent rescue; also recorded: robust neuroprotection
[2]; AD brain slice assay
  concentration that provided peak rescue: 10 µM
[3]
  toxicity in PC12 cell culture assay: decreased cellular toxicity
[4]
  Solubility: 100 mM in DMSO
[4]; [26]
  Solubility: 100 mM (≈ 33.5 mg/mL)

## O=C(C1CC1)N1CCN(Cn2sc3ccccc3c2=O)CC1 [LOC14]
[1]; [24]
  EC50: 352 nM
[1]; rescue from mHTTQ103 induced cell death, read-out: PC12 cells EC50
  EC50: 352 nM
[1]; Tables 5-13, PC12 cells
  Max Viability (%): 66%
[1]; protection from mHTT toxicity, FIG. 13A
  EC100: 3.1 µM
[1]; [25]
  PC12 cells Max % Viability: 66.25%
[5]
  inhibition at 3 µM: 8%
[6]
  inhibition at 3 µM: -22%
[7]
  inhibition at 3 µM: 34%
[8]
  inhibition at 3 µM: -4%
[9]
  inhibition at 3 µM: 11%
[10]
  inhibition at 3 µM: -1%
[11]
  inhibition at 3 µM: 36%
[12]
  Average: 0.0
[13]
  Average: 0.0
[14]
  Average: 1.2
[15]
  Average: 5.9
[16]; Blocker mode
  Average: 0.0
[16]; Opener mode
  Average: 1.7
[17]
  Average: 1.4
[18]
  Average: 9.9
[19]
  Average: 0.0
[20]
  Average: 22.7
[21]
  EC100: 24 nM
[22]; in mice
  tolerated dose: 20 mg/kg
[22]; mouse, in vivo, po
  oral bioavailability: orally bioavailable
[22]; mouse, in vivo
  blood-brain-barrier penetration: blood-brain-barrier penetrant
[22]; via oral gavage
  half-life in the brain: 2.2 h
[23]
  inhibition at 3 µM: 10%
[4]
  Solubility: 100 mM in DMSO
[4]; [26]
  Solubility: 100 mM (≈ 31.7 mg/mL)
